The subject of the assay is AAV6. The assay is described as follows: Single-site amino acid substitution scanning of CPs by enrichment score in AAV6. The following applies: FIG. 29, relative to original CP. The assay is classed as cell-based, adeno-associated virus. The text has this: This plot visually depicts the functional impact of mutations on a particular cyclic peptide as measured by enrichment score. The heatmap provides valuable insights into the mutational landscape of cyclic peptides, highlighting positions where certain amino acid substitutions are either not tolerated (e.g., resulting in depletion), are neutral (e.g., resulting in similar enrichment scores), or are favored (e.g., resulting in higher enrichment, indicating enhanced cyclic peptide variants).
The heatmap is structured with rows indicating the position of the original amino acid, while the columns represent the position of the mutated amino acid (for a given row). The X-axis corresponds to the 20 natural amino acid substitutions for a given cyclic peptide residue index. The Y axis represents the amino acids present in a specific cyclic peptide, starting from the top with the “scar” residue from the peptide cyclization splicing reaction of DNA expressed cyclic peptides. The scar residue is typically amino acids containing a nucleophilic side chain like cysteine, serine, or threonine. Each row is labeled by the native amino acid of a given CP with amino acid positions going from top to bottom (e.g. index 1 is at the top, followed by index 2 followed by, index 3, etc. . . . ). The final amino acid at the bottom cyclizes with the scar residue at top. […]

In the case of “Ser2Pro: CSSLT with serine in residue index 2 substituted with proline (CPSLT; cyclic; Cyclic peptide that was found to enhance AAV TU:VG ratio and lentiviral titer.)”, the “enrichment factor of single-site substitution variant” value was “substantially increased enrichment factors”.

For the origin of these results see US20230416307A1, “[…] PEPTIDES FOR ENHANCING VIRAL PRODUCTION” (Synvivia, Inc., priority 2022, published 2023).
